Tested on: pSTAT5 and pERK in patient-derived AML cells
Assay: Cytokine-induced pSTAT5 and pERK in patient-derived AML cells
Format: cell-based, human
Conditions: for pERK relative expression, FOLD / pSTAT5 relative expression, FOLD: fold over unstimulated; for pSTAT5 FOLD: relative expression vs Unstimulated
Experimental: All bone marrow or peripheral blood samples from patients with AML were collected after informed consent, in accordance with guidelines approved by the Human Research Ethics Committee of Alfred Health. Human AML cells were thawed, washed, and adjusted to 2 × 10^6 cells/mL in Iscove’s Modified Dulbecco’s Media (#12440053, Gibco, Grand Island NY, USA) supplemented with Glutamax 2 mM (Gibco) and 1% v/v Penicillin/Streptomycin (Gibco). […] For cytokine-mediated signalling assays, cells were incubated with vehicle or Dynole 34-2 for 1 h, and subsequently stimulated with either 25 ng/mL rhIL-3 (#200-03, Pepro Tech), 25 ng/mL rhGM-CSF (#300-03, Pepro Tech) or 125 ng/mL rhSCF (#300-07, Pepro Tech) at 37 °C for 20 min. Cells were washed twice using cold PBS 1× and flow cytometry analyses were done on single-cell suspensions using BD Pharmingen antibodies against human CD45 (#557748), IL-3R (CD123, #560087), GM-CSFR alpha chain (CD116, #554532) and BioLegend antibody against human KIT (A3C6E2). For assessing intracellular levels of pSTAT5 and phospho-ERK, flow cytometry analyses were performed in duplicate on patient-derived AML cells as described in the FACS analysis section. The MFI observed without stimulation was reported as 1.

CCCCCCCCNC(=O)C(C#N)=Cc1cn(CCCN(C)C)c2ccccc12 [Dynole 34-2, 2-Cyano-N-octyl-3-(1-(3-dimethylaminopropyl)-1H-indol-3-yl)-acrylamide]
pERK relative expression, MFI (AML01-021): 1807 MFI | pSTAT5 relative expression, MFI (AML01-021): 4941 MFI | pStat5 (MFI) (AML01-021): 2538 MFI | pERK relative expression, FOLD (AML01-021): 1.07 FOLD | pSTAT5 relative expression, FOLD (AML01-021): 1.87 FOLD | pSTAT5 FOLD (AML01-021): 1.02 | pERK relative expression, MFI (AML01-050): 10447 MFI | pSTAT5 relative expression, MFI (AML01-050): 19500 MFI | pStat5 (MFI) (AML01-050): 29884 MFI | pERK relative expression, FOLD (AML01-050): 1.28 FOLD | pSTAT5 relative expression, FOLD (AML01-050): 0.97 FOLD | pSTAT5 FOLD (AML01-050): 0.84 | pERK relative expression, MFI (AML01-072): 2195 MFI | pSTAT5 relative expression, MFI (AML01-072): 18325 MFI | pStat5 (MFI) (AML01-072): 10160 MFI | pERK relative expression, FOLD (AML01-072): 1.01 FOLD | pSTAT5 relative expression, FOLD (AML01-072): 0.91 FOLD | pSTAT5 FOLD (AML01-072): 0.88 | pERK relative expression, MFI (AML01-226): 1574 MFI | pSTAT5 relative expression, MFI (AML01-226): 673 MFI | pStat5 (MFI) (AML01-226): 511 MFI | pERK relative expression, FOLD (AML01-226): 1.05 FOLD | pSTAT5 relative expression, FOLD (AML01-226): 0.89 FOLD | pSTAT5 FOLD (AML01-226): 1.01 | pERK relative expression, MFI (AML01-307): 2891 MFI | pSTAT5 relative expression, MFI (AML01-307): 12933 MFI | pStat5 (MFI) (AML01-307): 10786 MFI | pERK relative expression, FOLD (AML01-307): 1.06 FOLD | pSTAT5 relative expression, FOLD (AML01-307): 1.07 FOLD | pSTAT5 FOLD (AML01-307): 1.08 | pERK relative expression, MFI (AML02-078): 5047 MFI | pSTAT5 relative expression, MFI (AML02-078): 31582 MFI | pStat5 (MFI) (AML02-078): 31914 MFI | pERK relative expression, FOLD (AML02-078): 0.79 FOLD | pSTAT5 relative expression, FOLD (AML02-078): 1.24 FOLD | pSTAT5 FOLD (AML02-078): 1.05 | pERK relative expression, MFI (AML02-123): 4380 MFI | pSTAT5 relative expression, MFI (AML02-123): 22757 MFI | pStat5 (MFI) (AML02-123): 30741 MFI | pERK relative expression, FOLD (AML02-123): 1.16 FOLD | pSTAT5 relative expression, FOLD (AML02-123): 1.15 FOLD | pSTAT5 FOLD (AML02-123): 1.00 | pERK relative expression, MFI (AML02-232): 1644 MFI | pSTAT5 relative expression, MFI (AML02-232): 1406 MFI | pStat5 (MFI) (AML02-232): 688 MFI | pERK relative expression, FOLD (AML02-232): 1.04 FOLD | pSTAT5 relative expression, FOLD (AML02-232): 1.59 FOLD | pSTAT5 FOLD (AML02-232): 0.73 | pERK relative expression, MFI (AML03-330): 10652 MFI | pSTAT5 relative expression, MFI (AML03-330): 5650 MFI | pStat5 (MFI) (AML03-330): 6696 MFI | pERK relative expression, FOLD (AML03-330): 0.97 FOLD | pSTAT5 relative expression, FOLD (AML03-330): 1.04 FOLD | pSTAT5 FOLD (AML03-330): 1.02 | pERK relative expression, MFI (AML03-331): 1814 MFI | pSTAT5 relative expression, MFI (AML03-331): 1899 MFI | pStat5 (MFI) (AML03-331): 2344 MFI | pERK relative expression, FOLD (AML03-331): 0.94 FOLD | pSTAT5 relative expression, FOLD (AML03-331): 1.03 FOLD | pSTAT5 FOLD (AML03-331): 1.02 | pERK relative expression, MFI (AML4): 1091 MFI | pSTAT5 relative expression, MFI (AML4): 3442 MFI | pStat5 (MFI) (AML4): 3071 MFI | pERK relative expression, FOLD (AML4): 1.13 FOLD | pSTAT5 relative expression, FOLD (AML4): 0.95 FOLD | pSTAT5 FOLD (AML4): 0.85 | pERK relative expression, MFI (AML16): 2510 MFI | pSTAT5 relative expression, MFI (AML16): 17405 MFI | pStat5 (MFI) (AML16): 13885 MFI | pERK relative expression, FOLD (AML16): 0.44 FOLD | pSTAT5 relative expression, FOLD (AML16): 0.88 FOLD | pSTAT5 FOLD (AML16): 0.70 | pERK relative expression, MFI (AML17): 822 MFI | pSTAT5 relative expression, MFI (AML17): 3831 MFI | pStat5 (MFI) (AML17): 3091 MFI | pERK relative expression, FOLD (AML17): 0.99 FOLD | pSTAT5 relative expression, FOLD (AML17): 1.02 FOLD | pSTAT5 FOLD (AML17): 1.01 | pERK relative expression, MFI (AML18): 985 MFI | pSTAT5 relative expression, MFI (AML18): 4716 MFI | pStat5 (MFI) (AML18): 4188 MFI | pERK relative expression, FOLD (AML18): 0.99 FOLD | pSTAT5 relative expression, FOLD (AML18): 0.86 FOLD | pSTAT5 FOLD (AML18): 1.02 | pERK relative expression, MFI (AML34): 2315 MFI | pStat5 (MFI) (AML34): 10444 MFI | pERK relative expression, FOLD (AML34): 0.84 FOLD | pSTAT5 FOLD (AML34): 1.43 | pERK relative expression, MFI (AML54): 2163 MFI | pStat5 (MFI) (AML54): 4818 MFI | pERK relative expression, FOLD (AML54): 0.94 FOLD | pSTAT5 FOLD (AML54): 0.89 | downstream signalling (pSTAT5) in human AML cells (result in words): blocked downstream signalling

— publication PMC7719179, “Small molecule inhibition of Dynamin-dependent endocytosis targets multiple niche signals and impairs leukemia stem cells” (Nature Communications, 2020)
